The subject of data set [1] is d-amphetamine-stimulated locomotor activity in rats. The data set can be described thus: d-Amphetamine-stimulated locomotor activity (LMA). To be noted: rat, oral, 30 min before d-amphetamine 1 mg/kg s.c., 2 h recording. The data set is classed as in vivo, Sprague Dawley rat. The procedure: d-Amphetamine-Stimulated Locomotor Activity (LMA):
The LMA model is used to test novel compounds for efficacy as orally active dopaminergic (DA) antagonists. In this model, administration of d-amphetamine to rats induces a stimulation of locomotor activity, measured as centimeters traveled over a two-hour period. Compounds are administered prior to d-amphetamine, and their efficacy in decreasing the stimulated locomotion is assessed as a measure of DA antagonism.
Sprague Dawley (S-D) male rats were obtained from Harlan Laboratories, Indianapolis Ind. All rats weighed 130-150 g at the time of arrival and were housed in groups of 5 for at least 1 week prior to testing. Food and water were available ad lib. At the time of testing, rats weighed 150-200 g. Tests occurred between 9:00 AM and 4:00 PM. All rats were food deprived overnight prior to testing.
Locomotor activity testing in rats was performed using 16-Beam Digiscan Animal Activity Monitors (Accuscan Electronics, Columbus, Ohio). Each test chamber consisted of a Plexiglas box measuring 16×16 inches, placed within the monitor frame. The entire monitor/chamber assembly is further housed inside a stainless steel sound-attenuating chamber (SAC). The SAC is lighted, ventilated, and isolates the rat from room environment. Rats were tested one per chamber. Data is collected using Versamax software.
Each test consists of four treatment groups, vehicle and three doses of the test compound. Each treatment group is comprised of 8 animals. The test is performed in two sessions, with 4 groups of 4 rats in each treatment group tested in each session, and data from the two sessions, typically morning and afternoon of the same day, combined to give a total of 8 rats per group.
Rats were removed from the housing room and transported to the test room in transfer cages. […]
Data were collected as centimeters traveled during the 2 hour test period. The effect of the test compound was expressed as a percentage decrease (or increase) in stimulated locomotor activity relative to the activity observed in the vehicle-treated group. […]

The target of data set [2] is T1, serotonin 2A (5HT2A) receptor (Homo sapiens, UniProt P28223).
T1 construct: expressed in transfected cells; host or cells: Swiss cells (Swiss-h5HT2A)
T1 sequence (P28223 whole entry): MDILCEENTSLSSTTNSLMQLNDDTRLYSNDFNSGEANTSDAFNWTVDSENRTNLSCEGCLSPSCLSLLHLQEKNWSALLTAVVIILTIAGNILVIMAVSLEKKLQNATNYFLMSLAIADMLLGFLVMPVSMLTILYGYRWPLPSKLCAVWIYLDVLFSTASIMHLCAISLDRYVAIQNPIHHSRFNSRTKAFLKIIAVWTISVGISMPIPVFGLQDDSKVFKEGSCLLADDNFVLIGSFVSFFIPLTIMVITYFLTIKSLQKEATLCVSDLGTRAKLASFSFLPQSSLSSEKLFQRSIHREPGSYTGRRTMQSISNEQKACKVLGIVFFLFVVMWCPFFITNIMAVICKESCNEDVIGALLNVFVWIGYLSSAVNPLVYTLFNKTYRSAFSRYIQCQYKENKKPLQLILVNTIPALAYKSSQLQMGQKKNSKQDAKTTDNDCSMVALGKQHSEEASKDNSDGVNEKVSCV
Description: Serotonin 2A binding ([3H]ketanserin, Swiss-h5HT2A cell membranes). As to conditions: [3H]ketanserin 1.0 nM. An excerpt: (§1) The ability of the compounds of this invention to bind to the dopamine D2 and serotonin 2A (5HT2A) receptors can be determined using conventional radioligand receptor binding assays. All receptors can be heterologously expressed in cell lines and experiments conducted in membrane preparations from the cell lines using procedures outlined below. IC50 concentrations can be determined by nonlinear regression of concentration-dependent reduction in specific binding. The Cheng-Prussoff equation can be used to convert the IC50 to Ki concentrations.
[^3H] Ketanserin binding to Swiss-h5HT2A cell membranes can be carried out in 250 μl of 50 mM Tris-HCl buffer pH 7.4. Duplicate samples containing (in order of addition) test compounds, 1.0 nM [^3H]ketanserin, and approximately 75 μg protein are incubated for 120 minutes at room temperature. Bound radioligand is separated by rapid filtration under reduced pressure through Whatman GF/B glass fiber filters previously treated with 0.3% polyethyleneimine. Radioactivity retained on the filter is determined by liquid scintillation spectrophotometry.
The title compounds of Examples 1-6 were tested using the above assay, in which specific binding determined in the presence of 1 mM ketanserin was 90%.

The target of the next data set is T2, dopamine D2 receptor (Homo sapiens, UniProt P14416).
T2 construct: expressed in transfected cells; host or cells: CHO cells (CHO-hD2L)
T2 sequence (P14416 whole entry): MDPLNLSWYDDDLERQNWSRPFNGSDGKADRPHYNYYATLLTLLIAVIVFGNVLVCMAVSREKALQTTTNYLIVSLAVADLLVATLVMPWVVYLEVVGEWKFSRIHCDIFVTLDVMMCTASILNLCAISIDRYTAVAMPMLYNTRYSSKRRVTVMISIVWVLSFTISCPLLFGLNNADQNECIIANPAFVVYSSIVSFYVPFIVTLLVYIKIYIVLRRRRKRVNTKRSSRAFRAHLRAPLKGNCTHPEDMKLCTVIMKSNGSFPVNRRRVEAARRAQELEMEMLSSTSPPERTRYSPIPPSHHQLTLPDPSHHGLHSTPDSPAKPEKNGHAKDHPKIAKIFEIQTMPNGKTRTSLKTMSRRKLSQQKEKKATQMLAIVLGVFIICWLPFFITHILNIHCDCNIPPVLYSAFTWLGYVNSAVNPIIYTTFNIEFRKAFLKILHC
The data set can be described thus: Dopamine D2 receptor binding ([3H]spiperone, CHO-hD2L membranes). As to conditions: [3H]spiperone 0.4 nM.
From the text: as §1
Dopamine D2 Receptor Binding:
[^3H]Spiperone binding to a membrane preparation from CHO-hD2L cells is carried out in 250 μl of 50 mM Tris-HCl buffer containing 100 mM NaCl, 1 mM MgCl2 and 1% DMSO at pH 7.4. Duplicate samples containing (in order of addition) the test compounds, 0.4 nM [^3H]spiperone and approximately 12 μg protein are incubated for 120 minutes at room temperature. Bound radioligand is separated by rapid filtration under reduced pressure through Whatman GF/B glass fiber filters previously treated with 0.3% polyethyleneimine. Radioactivity retained on the filter is determined by liquid scintillation spectrophotometry.
The title compounds of Examples 1-6 were tested using the above assay, in which specific binding determined in the presence of 1 mM haloperidol was 95%.

Each structure is given as a SMILES string. Where a name gives a salt, the structure may show the parent alone.

As a reminder, the melting point is the temperature, or range, at which the solid turns liquid. `CC(=O)N1CCC(C)(C)c2cccc(CCCN3CCN(c4nsc5ccccc45)CC3)c21` (as salt: HCl) [Example 19, 1-{8-[3-(4-BENZO[D]ISOTHIAZOL-3-YL-PIPERAZIN-1-YL)-PROPYL]-4,4-DIMETHYL-3,4-DIHYDRO-2H-QUINOLIN-1-YL}-ETHANONE] came in with a melting point of 109 °C.

In turn, `CC(=O)N1CCC(C)(C)c2c(C)ccc(CCN3CCN(c4noc5ccccc45)CC3)c21` (as salt: HCl) [Example 26, 1-{8-[2-(4-BENZO[D]ISOXAZOL-3-YL-PIPERAZIN-1-YL)-ETHYL]-4,4,5-TRIMETHYL-3,4-DIHYDRO-2H-QUINOLIN-1-YL}-ETHANONE] came in with a melting point of 230 °C.

In the case of `CC(=O)N1CCC(C)(C)c2c(C)ccc(CCN3CCN(c4nsc5ccccc45)CC3)c21` (as salt: HCl) [Example 21, 1-{8-[2-(4-BENZO[D]ISOTHIAZOL-3-YL-PIPERAZIN-1-YL)-ETHYL]-4,4,5-TRIMETHYL-3,4-DIHYDRO-2H-QUINOLIN-1-YL}-ETHANONE], the melting point worked out at 132 °C.

For `CC1(C)CC(=O)Nc2c(CCN3CCN(c4n[s+]([O-])c5ccccc45)CC3)cc(F)cc21` (stereo not drawn) [Example 14, 6-Fluoro-4,4-dimethyl-8-{2-[4-(1−oxo-1H-1λ^4-benzo[d]isothiazol-3-yl)-piperazin-1-yl]-ethyl}-3,4-dihydro-1H-quinolin-2-one], the melting point was 235 °C.

In turn, `CC1(C)CC(=O)Nc2c(CCN3CCN(c4nsc5ccc(F)cc45)CC3)cc(F)cc21` [Example 16, 6-FLUORO-8-{2-[4-(5-FLUORO-BENZO[D]ISOTHIAZOL-3-YL)-PIPERAZIN-1-YL]-ETHYL}-4,4-DIMETHYL-3,4-DIHYDRO-1H-QUINOLIN-2-ONE] came in with a melting point of 191 °C.

Consider `Cc1ccc(CCN2CCN(c3noc4ccccc34)CC2)c2c1C(C)(C)CCN2` [Example 25, 8-[2-(4-BENZO[D]ISOXAZOL-3-YL-PIPERAZIN-1-YL)-ETHYL]-4,4,5-TRIMETHYL-1,2,3,4-TETRAHYDRO-QUINOLINE], for which the melting point worked out at 135 °C.

Compound `CC1(C)CC(=O)Nc2c(CCCN3CCN(c4nsc5ccccc45)CC3)cccc21` [Example 18, 8-[3-(4-BENZO[D]ISOTHIAZOL-3-YL-PIPERAZIN-1-YL)-PROPYL]-4,4-DIMETHYL-3,4-DIHYDRO-1H-QUINOLIN-2-ONE] returned a melting point of 166 °C.

Consider `CC1(C)CC(=O)Nc2c(CCN3CCN(c4nsc5ccccc45)CC3)cc(F)cc21` [Example 3, 8-[2-(4-1,2-BENZISOTHIAZOL-3-YL-PIPERAZIN-1-YL)-ETHYL]-6-FLUORO-4,4-DIMETHYL-3,4-DIHYDRO-1H-QUINOLIN-2-ONE], for which, in data set [1], the “activity in reducing d-amphetamine-stimulated locomotor activity (significant decrease vs vehicle)” value is “active”.

Usually Ki stands for a measure of affinity in units of concentration, obtained from inhibition or displacement. A low value points to a stronger hold on the target. `CC1(C)Cc2cccc(CCN3CCN(c4nsc5ccccc45)CC3)c2NC1=O` [Example 5, 8-[2-(4-1,2-BENZISOTHIAZOL-3-YL-PIPERAZIN-1-YL)-ETHYL]-3,3-DIMETHYL-3,4-DIHYDRO-1H-QUINOLIN-2-ONE] registered a melting point of 95 °C. The compound further returned a Ki in data set [2] of 2.07 nM. The Ki on dopamine D2 receptor was found to be 74.9 nM.

On to `CC1(C)CC(=O)Nc2c(CCN3CCN(c4nsc5ccccc45)CC3)cc(F)cc21` (as salt: hydrochloride) [Example 3, 8-[2-(4-1,2-BENZISOTHIAZOL-3-YL-PIPERAZIN-1-YL)-ETHYL]-6-FLUORO-4,4-DIMETHYL-3,4-DIHYDRO-1H-QUINOLIN-2-ONE], for which the melting point came to 298 °C.

Regarding `CC(=O)N1CCC(C)(C)c2cc(F)cc(CCN3CCN(c4nsc5ccc(F)cc45)CC3)c21` (as salt: HCl), the melting point was 128 °C.

Regarding `Cc1ccc(CCN2CCN(c3nsc4ccccc34)CC2)c2c1C(C)(C)CC(=O)N2` [Example 20, 8-[2-(4-BENZO[D]ISOTHIAZOL-3-YL-PIPERAZIN-1-YL)-ETHYL]-4,4,5-TRIMETHYL-3,4-DIHYDRO-1H-QUINOLIN-2-ONE], the melting point was found to be 129 °C.

`CN1C(=O)CC(C)(C)c2cccc(CCN3CCN(c4nsc5ccccc45)CC3)c21` [Example 2, 8-[2-(4-1,2-BENZISOTHIAZOL-3-YL-PIPERAZIN-1-YL)-ETHYL]-1,4,4-TRIMETHYL-3,4-DIHYDRO-1H-QUINOLIN-2-ONE]: the melting point was 261 °C. Further, affinity in data set [2] was put at a Ki of 0.18 nM. In addition, the Ki on dopamine D2 receptor was determined as 81.3 nM.

In turn, `CC1(C)CC(=O)Nc2c(CCN3CCN(c4noc5ccccc45)CC3)cc(F)cc21` [Example 27, 8-[2-(4-BENZO[D]ISOXAZOL-3-YL-PIPERAZIN-1-YL)-ETHYL]-6-FLUORO-4,4-DIMETHYL-3,4-DIHYDRO-1H-QUINOLIN-2-ONE] gave a melting point of 230 °C.

On to `CC1(C)CC(=O)Nc2c(CCN3CCN(c4nsc5ccccc45)CC3)cccc21` [Example 1, 8-[2-(4-1,2-BENZISOTHIAZOL-3-YL-PIPERAZIN-1-YL)-ETHYL]-4,4-DIMETHYL-3,4-DIHYDRO-1H-QUINOLIN-2-ONE], for which, in data set [1], the “activity in reducing d-amphetamine-stimulated locomotor activity (significant decrease vs vehicle)” value is given as “active”.

The compound `CC(=O)N1CCC(C)(C)c2cc(F)cc(CCN3CCN(c4noc5ccccc45)CC3)c21` (as salt: HCl) [Example 28, 1-{8-[2-(4-benzo[d]isoxazol-3-yl-piperazin-1-yl)-ethyl]-6-fluoro-4,4-dimethyl-3,4-dihydro-2H-quinolin-1-yl}-ethanone] gave a melting point of 112 °C.

On to `CC1(C)CC(=O)Nc2c(CCN3CCN(c4nsc5ccccc45)CC3)cccc21` (as salt: hydrochloride) [Example 1, 8-[2-(4-1,2-BENZISOTHIAZOL-3-YL-PIPERAZIN-1-YL)-ETHYL]-4,4-DIMETHYL-3,4-DIHYDRO-1H-QUINOLIN-2-ONE], for which the melting point worked out at 284 °C.

As for `Cl.O=C1CCc2cccc(CCN3CCN(c4nsc5ccccc45)CC3)c2N1`, the melting point came to 251 °C.

The compound `O=C1CC(c2ccccc2)c2cccc(CCN3CCN(c4nsc5ccccc45)CC3)c2N1` (stereo not drawn) [Example 6, 8-[2-(4-1,2-BENZISOTHIAZOL-3-YL-PIPERAZIN-1-YL)-ETHYL]-4-PHENYL-3,4-DIHYDRO-1H-QUINOLIN-2-ONE] had a melting point of 227 °C. The inhibition constant Ki in data set [2] stood at 0.04 nM. This compound yielded a Ki at dopamine D2 receptor of 13.8 nM.

As to `Cc1ccc(CCN2CCN(c3noc4ccccc34)CC2)c2c1C(C)(C)CC(=O)N2` [Example 24, 8-[2-(4-BENZO[D]ISOXAZOL-3-YL-PIPERAZIN-1-YL)-ETHYL]-4,4,5-TRIMETHYL-3,4-DIHYDRO-1H-QUINOLIN-2-ONE], the melting point came out at 170 °C.

`Cc1cc(=O)[nH]c2c(CCN3CCN(c4nsc5ccccc45)CC3)cccc12` [Example 29, 8-[2-(4-BENZO[D]ISOTHIAZOL-3-YL-PIPERAZIN-1-YL)-ETHYL]-4-METHYL-1H-QUINOLIN-2-ONE]: the “activity in reducing d-amphetamine-stimulated locomotor activity (significant decrease vs vehicle)” value in data set [1] is “active”.

The values are drawn from patent US20040067960A1, “Heterocyclic substituted piperazines for the treatment of schizophrenia” (priority 2002, published 2004).
